Experiments:
Format in all cases: functional
Avena sterilis [1] = experiment: Herbicidal activity against Avena sterilis accession P04 assessed as weed survival at 4 times field recommended herbicide dose
Avena sterilis [2] = experiment: Herbicidal activity against Avena sterilis accession P13S assessed as weed survival at 1/4 times field recommended herbicide dose
Avena sterilis [3] = experiment: Herbicidal activity against Avena sterilis accession P19S assessed as weed survival at 1/32 times field recommended herbicide dose
Avena sterilis [4] = experiment: Herbicidal activity against Avena sterilis accession P07 assessed as induction of weed mortality
Avena sterilis [5] = experiment: Herbicidal activity against Avena sterilis accession P09 assessed as weed survival at 16 times field recommended herbicide dose
Avena sterilis [6] = experiment: Herbicidal activity against Avena sterilis accession P09 assessed as weed survival at 1 times field recommended herbicide dose
Avena sterilis [7] = experiment: Herbicidal activity against Avena sterilis accession P12 assessed as weed survival at 32 times field recommended herbicide dose
Avena sterilis [8] = experiment: Herbicidal activity against Avena sterilis accession P21S assessed as weed survival at 1/32 times field recommended herbicide dose
Avena sterilis [9] = experiment: Herbicidal activity against Avena sterilis accession P14 assessed as induction of weed mortality
Avena sterilis [10] = experiment: Herbicidal activity against Avena sterilis accession P17 assessed as weed survival at 1 times field recommended herbicide dose
Avena sterilis [11] = experiment: Herbicidal activity against Avena sterilis accession P16 assessed as weed survival at 1 times field recommended herbicide dose
Avena sterilis [12] = experiment: Herbicidal activity against Avena sterilis accession P02 assessed as weed survival at 16 times field recommended herbicide dose
Avena sterilis [13] = experiment: Herbicidal activity against Avena sterilis accession P03 assessed as weed survival at 32 times field recommended herbicide dose
Avena sterilis [14] = experiment: Herbicidal activity against Avena sterilis accession P15 assessed as weed survival at 8 times field recommended herbicide dose
Avena sterilis [15] = experiment: Herbicidal activity against Avena sterilis accession P21S assessed as weed survival at 1/8 times field recommended herbicide dose
Avena sterilis [16] = experiment: Herbicidal activity against Avena sterilis accession P20 assessed as weed survival at 4 times field recommended herbicide dose
Avena sterilis [17] = experiment: Herbicidal activity against Avena sterilis accession P16 assessed as weed survival at 4 times field recommended herbicide dose
Avena sterilis [18] = experiment: Herbicidal activity against Avena sterilis accession P06S assessed as weed survival at 1/32 times field recommended herbicide dose
Avena sterilis [19] = experiment: Herbicidal activity against Avena sterilis accession P10S assessed as weed survival at 1/16 times field recommended herbicide dose
Avena sterilis [20] = experiment: Herbicidal activity against Avena sterilis accession P06S assessed as weed survival at 1 times field recommended herbicide dose
Avena sterilis [21] = experiment: Herbicidal activity against Avena sterilis accession P03 assessed as induction of weed mortality
Avena sterilis [22] = experiment: Herbicidal activity against Avena sterilis accession P10S assessed as weed survival at 1/8 times field recommended herbicide dose
Avena sterilis [23] = experiment: Herbicidal activity against Avena sterilis accession P19S assessed as weed survival at 1/8 times field recommended herbicide dose
Avena sterilis [24] = experiment: Herbicidal activity against Avena sterilis accession P10S assessed as weed survival at 1 times field recommended herbicide dose
Avena sterilis [25] = experiment: Herbicidal activity against Avena sterilis accession P19S assessed as induction of weed mortality
Avena sterilis [26] = experiment: Herbicidal activity against Avena sterilis accession P08 assessed as weed survival at 8 times field recommended herbicide dose
Avena sterilis [27] = experiment: Herbicidal activity against Avena sterilis accession P08 assessed as induction of weed mortality
Avena sterilis [28] = experiment: Herbicidal activity against Avena sterilis accession P11 assessed as weed survival at 8 times field recommended herbicide dose
Avena sterilis [29] = experiment: Herbicidal activity against Avena sterilis accession P02 assessed as weed survival at 32 times field recommended herbicide dose
Avena sterilis [30] = experiment: Herbicidal activity against Avena sterilis accession P17 assessed as induction of weed mortality
Avena sterilis [31] = experiment: Herbicidal activity against Avena sterilis accession P17 assessed as weed survival at 4 times field recommended herbicide dose
Avena sterilis [32] = experiment: Herbicidal activity against Avena sterilis accession P08 assessed as weed survival at 16 times field recommended herbicide dose
Avena sterilis [33] = experiment: Herbicidal activity against Avena sterilis accession P01 assessed as weed survival at 4 times field recommended herbicide dose
Avena sterilis [34] = experiment: Herbicidal activity against Avena sterilis accession P03 assessed as weed survival at 8 times field recommended herbicide dose
Avena sterilis [35] = experiment: Herbicidal activity against Avena sterilis accession P17 assessed as weed survival at 16 times field recommended herbicide dose
Avena sterilis [36] = experiment: Herbicidal activity against Avena sterilis accession P21S assessed as weed survival at 1/16 times field recommended herbicide dose
Avena sterilis [37] = experiment: Herbicidal activity against Avena sterilis accession P16 assessed as induction of weed mortality
Avena sterilis [38] = experiment: Herbicidal activity against Avena sterilis accession P05 assessed as induction of weed mortality
Avena sterilis [39] = experiment: Herbicidal activity against Avena sterilis accession P14 assessed as weed survival at 1 times field recommended herbicide dose
Avena sterilis [40] = experiment: Herbicidal activity against Avena sterilis accession P12 assessed as weed survival at 16 times field recommended herbicide dose
Avena sterilis [41] = experiment: Herbicidal activity against Avena sterilis accession P09 assessed as induction of weed mortality
Avena sterilis [42] = experiment: Herbicidal activity against Avena sterilis accession P21S assessed as weed survival at 1/4 times field recommended herbicide dose
Avena sterilis [43] = experiment: Herbicidal activity against Avena sterilis accession P20 assessed as induction of weed mortality
Avena sterilis [44] = experiment: Herbicidal activity against Avena sterilis accession P17 assessed as weed survival at 32 times field recommended herbicide dose
Avena sterilis [45] = experiment: Herbicidal activity against Avena sterilis accession P18 assessed as weed survival at 1 times field recommended herbicide dose
Avena sterilis [46] = experiment: Herbicidal activity against Avena sterilis accession P11 assessed as induction of weed mortality
Avena sterilis [47] = experiment: Herbicidal activity against Avena sterilis accession P11 assessed as weed survival at 4 times field recommended herbicide dose
Avena sterilis [48] = experiment: Herbicidal activity against Avena sterilis accession P02 assessed as weed survival at 4 times field recommended herbicide dose
Avena sterilis [49] = experiment: Herbicidal activity against Avena sterilis accession P02 assessed as induction of weed mortality
Avena sterilis [50] = experiment: Herbicidal activity against Avena sterilis accession P10S assessed as induction of weed mortality
Avena sterilis [51] = experiment: Herbicidal activity against Avena sterilis accession P22 assessed as weed survival at 32 times field recommended herbicide dose
Avena sterilis [52] = experiment: Herbicidal activity against Avena sterilis accession P20 assessed as weed survival at 1 times field recommended herbicide dose
Avena sterilis [53] = experiment: Herbicidal activity against Avena sterilis accession P20 assessed as weed survival at 8 times field recommended herbicide dose
Avena sterilis [54] = experiment: Herbicidal activity against Avena sterilis accession P13S assessed as weed survival at 1 times field recommended herbicide dose
Avena sterilis [55] = experiment: Herbicidal activity against Avena sterilis accession P11 assessed as weed survival at 32 times field recommended herbicide dose
Avena sterilis [56] = experiment: Herbicidal activity against Avena sterilis accession P01 assessed as induction of weed mortality
Avena sterilis [57] = experiment: Herbicidal activity against Avena sterilis accession P16 assessed as weed survival at 8 times field recommended herbicide dose
Avena sterilis [58] = experiment: Herbicidal activity against Avena sterilis accession P07 assessed as weed survival at 1 times field recommended herbicide dose
Avena sterilis [59] = experiment: Herbicidal activity against Avena sterilis accession P03 assessed as weed survival at 16 times field recommended herbicide dose

COCc1cnc(C2=NC(C)(C(C)C)C(=O)N2)c(C(=O)O)c1 (centres undefined) [IMAZAMOX]
80%: Survival (Avena sterilis [19]) | Survival (Avena sterilis [23])
60%: Survival (Avena sterilis [22]) | Survival (Avena sterilis [42])
<50 gAi/ha: GR50 (Avena sterilis [4]) | GR50 (Avena sterilis [9]) | GR50 (Avena sterilis [21]) | GR50 (Avena sterilis [27]) | GR50 (Avena sterilis [30]) | GR50 (Avena sterilis [37]) | GR50 (Avena sterilis [38]) | GR50 (Avena sterilis [41]) | GR50 (Avena sterilis [43]) | GR50 (Avena sterilis [46]) | GR50 (Avena sterilis [49]) | GR50 (Avena sterilis [56])
40%: Survival (Avena sterilis [2])
100%: Survival (Avena sterilis [3]) | Survival (Avena sterilis [8])
14 gAi/ha: GR50 (Avena sterilis [25])
87%: Survival (Avena sterilis [15])
97%: Survival (Avena sterilis [18]) | Survival (Avena sterilis [36])
3%: Survival (Avena sterilis [10])
7 gAi/ha: GR50 (Avena sterilis [50])
0%: Survival (Avena sterilis [1]) | Survival (Avena sterilis [5]) | Survival (Avena sterilis [6]) | Survival (Avena sterilis [7]) | Survival (Avena sterilis [11]) | Survival (Avena sterilis [12]) | Survival (Avena sterilis [13]) | Survival (Avena sterilis [14]) | Survival (Avena sterilis [16]) | Survival (Avena sterilis [17]) | Survival (Avena sterilis [20]) | Survival (Avena sterilis [24]) | Survival (Avena sterilis [26]) | Survival (Avena sterilis [28]) | Survival (Avena sterilis [29]) | Survival (Avena sterilis [31]) | Survival (Avena sterilis [32]) | Survival (Avena sterilis [33]) | Survival (Avena sterilis [34]) | Survival (Avena sterilis [35]) | Survival (Avena sterilis [39]) | Survival (Avena sterilis [40]) | Survival (Avena sterilis [44]) | Survival (Avena sterilis [45]) | Survival (Avena sterilis [47]) | Survival (Avena sterilis [48]) | Survival (Avena sterilis [51]) | Survival (Avena sterilis [52]) | Survival (Avena sterilis [53]) | Survival (Avena sterilis [54]) | Survival (Avena sterilis [55]) | Survival (Avena sterilis [57]) | Survival (Avena sterilis [58]) | Survival (Avena sterilis [59])
